Source: patent US20140066365A1, “USE OF CALIXARENES ASSOCIATED WITH AN ANTIBIOTIC IN THE TREATMENT OF BACTERIAL INFECTIONS” (priority 2011, published 2014)
Converted amounts (≈) assume the structure as drawn. Read-outs that look alike come from different tables or passages of the source.

How the values were obtained:
[1] = test system: Staphylococcus aureus strain ATCC 29213 (wild type); test: MIC of the compounds used alone, microdilution in a liquid medium (CLSI); assay type: cell-based; conditions: Staphylococcus aureus
Source text: (§1) The MICs of the antibiotics were previously defined for each strain, by the method of microdilution in a liquid medium (CLSI (Clinical and Laboratory Standards Institute), 2003).

[2] = as above; assay type: cell-based, Staphylococcus aureus; conditions: Staphylococcus aureus, MRSA
Source text: as §1

[3] = test system: MRSA strain having a resistance to the aminoglycosides and fluoroquinolones (SaR3); test: as above; assay type: cell-based, Staphylococcus aureus; conditions: Staphylococcus aureus, MRSA
Source text: as §1

[4] = test system: MRSA strain without associated resistance (SaR1); test: as above; assay type: cell-based, Staphylococcus aureus; conditions: Staphylococcus aureus, MRSA
Source text: as §1

[5] = test system: SaR1: Meticillin-Resistant Staphylococcus aureus without Associated Resistance; test: Antibiogram, MIC by the VITEK 2 system; assay type: cell-based; conditions: for CA-SFM Interpretation: Cc CA-SFM 2011; for CLSI Interpretation: Cc CLSI 2011; for EUCAST Interpretation: Cc EUCAST 2011; for Results: from MIC
Description: (§2) The bacterial and antibiogramidentification is carried out by the VITEK 2 system (bioMérieux)

[6] = test system: SaR3: Meticillin-Resistant Staphylococcus aureus; test: Antibiogram by the disk diffusion technique; assay type: cell-based; conditions: for CA-SFM Interpretation: Cd CA-SFM 2011; for CLSI Interpretation: Cd CLSI 2011; for EUCAST Interpretation: Cd EUCAST 2011; for Diameter: Table E1; for Results: Table E1, against Dmin Dmax; for diameter in mm: Table E2
Description: (§3) The bacterial and antibiogramidentification is carried out by the VITEK 2 system (bioMérieux) and by the disk diffusion technique

[7] = test system: SaR4: Meticillin-Resistant Staphylococcus aureus; test: Antibiogram, MIC by the VITEK 2 system; assay type: cell-based; conditions: for CA-SFM Interpretation / CLSI Interpretation / EUCAST Interpretation: from MIC; for CA-SFM Interpretation: Cc CA-SFM 2011; for CLSI Interpretation: Cc CLSI 2011; for EUCAST Interpretation: Cc EUCAST 2011; for MIC: Staphylococcus aureus
Description: as §3

[8] = test system: SaR1: Meticillin-Resistant Staphylococcus aureus without Associated Resistance; test: Antibiogram, inhibition diameter (Table D1); assay type: cell-based; conditions: for Results: from diameter, against Dmin Dmax
Description: as §2

[9] = test system: ESBL-producing strain of Escherichia coli, having an associated resistance to the aminoglycosides (EcR3); test: MIC of the compounds used alone, microdilution in a liquid medium (CLSI); assay type: cell-based; conditions: Escherichia coli, antibiotic alone (second value of cell), read-out: Initial MICs
Source text: as §1

[10] = test system: Escherichia coli strain ATCC 25922 (wild type); test: as above; assay type: cell-based; conditions: Escherichia coli, ATCC25922; antibiotic alone (second value of cell); E. coli ATCC 25922; read-out: Initial MICs
Source text: as §1

[11] = test system: Pseudomonas aeruginosa strain ATCC 27853 (wild type); test: as above; assay type: cell-based; conditions: antibiotic alone (second value of cell), P. aeruginosa ATCC 27853
Source text: as §1

[12] = test system: Pseudomonas aeruginosa strain PaR3; test: as above; assay type: cell-based; conditions: antibiotic alone (second value of cell)
Source text: as §1

[13] = test system: cephalosporinase-hyperproducing strain of Escherichia coli (EcR2); test: as above; assay type: cell-based; conditions: Escherichia coli, antibiotic alone (second value of cell), read-out: Initial MICs
Source text: as §1

[14] = test system: mucoid strain of Pseudomonas aeruginosa PaR5; test: as above; assay type: cell-based; conditions: antibiotic alone (second value of cell)
Source text: as §1

[15] = test system: penicillinase-producing strain of Escherichia coli without associated resistance (EcR1); test: as above; assay type: cell-based; conditions: Escherichia coli, antibiotic alone (second value of cell), read-out: Initial MICs
Source text: as §1

[16] = test system: Pseudomonas aeruginosa strain PaR2; test: microbe, parasite or virus in culture; assay type: cell-based; conditions: antibiotic alone (second value of cell)
Source text: as §1

[17] = test system: EcR1: Penicillinase-Producing Escherichia coli without Associated Resistance; test: Antibiogram by the disk diffusion technique; assay type: cell-based; conditions: for MIC mg/L (diameter in mm): EcR1, cells that print a diameter, Table A2; for Diameter: EcR1, disk diffusion
Description: 5.1 EcR1: Penicillinase-Producing Escherichia coli without Associated Resistance The bacterial and antibiogramidentification is carried out by the VITEK 2 system (bioMérieux) and by the disk diffusion technique.

[18] = test system: EcR3: ESBL-Producing Escherichia coli; test: Antibiogram by the disk diffusion technique; assay type: cell-based; conditions: for Diameter: Table C1; for diameter in mm: Table C2
Description: The bacterial and antibiogramidentification is carried out by the VITEK 2 system (bioMerieux) and by the disk diffusion technique

[19] = test system: PaR5: Pseudomonas aeruginosa; test: Antibiogram by the disk diffusion technique; assay type: cell-based; conditions: for diameter in mm: disk diffusion inhibition diameter, strain PaR5
Description: as §3

[20] = test system: PaR2: Pseudomonas aeruginosa; assay type: cell-based; conditions: for Diameter: Table G1; for diameter in mm: Table G2
Description: as §3

[21] = test system: PaR3: Pseudomonas aeruginosa; test: Antibiogram, MIC by the VITEK 2 system; assay type: cell-based
Description: as §2

[22] = ATCC29213, antibiotic alone (second value of cell), S. aureus ATCC 29213, read-out: Initial MICs
[23] = antibiotic alone (second value of cell), SaR4, read-out: MIC
[24] = antibiotic alone (second value of cell), SaR3, read-out: MIC
[25] = antibiotic alone (second value of cell), SaR1, read-out: MIC
[26] = Staphylococcus aureus, SaR1, Table D1, read-out: MIC
[27] = SaR4, Table F2, MIC, read-out: MIC
[28] = Pseudomonas aeruginosa, read-out: MIC

CC[C@H]1OC(=O)[C@H](C)[C@@H](O[C@H]2C[C@@](C)(OC)[C@@H](O)[C@H](C)O2)[C@H](C)[C@@H](O[C@@H]2O[C@H](C)C[C@H](N(C)C)[C@H]2O)[C@](C)(O)C[C@@H](C)C(=O)[C@H](C)[C@@H](O)[C@]1(C)O [Erythromycin]
MIC [1, 22]: 0.5 mg/L
MIC [2, 23]: > 32 µg/mL
MIC [3, 24]: 0.5 µg/mL
MIC [4, 25]: 0.5 µg/mL
CA-SFM Interpretation ([5]; SaR1): Susceptible
CLSI Interpretation ([5]; SaR1): Susceptible
EUCAST Interpretation ([5]; SaR1): Susceptible
Results ([5]; SaR1, Table D1): Susceptible
MIC mg/L ([5]; SaR1, Table D2): ≦0.25 mg/L
MIC [5, 26]: ≤ 0.25 mg/L
CA-SFM Interpretation [6]: Susceptible
CLSI Interpretation [6]: Susceptible
EUCAST Interpretation [6]: Susceptible
Diameter [6]: 25 mm
Results [6]: Susceptible
diameter in mm [6]: 25 mm
Results ([7]; SaR4, Table F1, MIC): Resistant
CA-SFM Interpretation ([7]; SaR4): Resistant
CLSI Interpretation ([7]; SaR4): Resistant
EUCAST Interpretation ([7]; SaR4): Resistant
MIC ([7]; SaR4, Table F1, read-out: MIC): ≥ 8 mg/L
MIC [7, 27]: ≥ 8 mg/L
Diameter [8]: 25 mm
Results [8]: Susceptible

CC(=O)NC[C@H]1CN(c2ccc(N3CCOCC3)c(F)c2)C(=O)O1 [Linezolid]
MIC [1, 22]: 2 mg/L
MIC [2, 23]: 2 µg/mL
MIC [3, 24]: 2 µg/mL
MIC [4, 25]: 2 µg/mL
CA-SFM Interpretation ([5]; SaR1): Susceptible
CLSI Interpretation ([5]; SaR1): Susceptible
EUCAST Interpretation ([5]; SaR1): Susceptible
Results ([5]; SaR1, Table D1): Susceptible
MIC ([5]; SaR1, Table D2): 2 mg/L (≈ 5.93 µM)
MIC [5, 26]: 2 mg/L (≈ 5.93 µM)
CA-SFM Interpretation [6]: Susceptible
CLSI Interpretation [6]: Susceptible
EUCAST Interpretation [6]: Susceptible
Diameter [6]: 26 mm
Results [6]: Susceptible
diameter in mm [6]: 26 mm
Diameter [8]: 29 mm
Results [8]: Susceptible

CO[C@H]1/C=C/O[C@@]2(C)Oc3c(C)c(O)c4c(O)c(c(/C=N/N5CCN(C)CC5)c(O)c4c3C2=O)NC(=O)/C(C)=C\C=C\[C@H](C)[C@H](O)[C@@H](C)[C@@H](O)[C@@H](C)[C@H](OC(C)=O)[C@@H]1C [Rifampicin]
MIC [9]: 4 µg/mL
MIC [10]: 4 µg/mL
MIC ([11]; Pseudomonas aeruginosa, ATCC27853, read-out: MIC): 64 µg/mL
MIC [12, 28]: 32 µg/mL
MIC [13]: 2 µg/mL
MIC [14, 28]: 16 µg/mL
MIC [15]: 4 µg/mL
MIC [16, 28]: 64 µg/mL (≈ 77.8 µM)
MIC mg/L (diameter in mm) [17]: 16 mm
Diameter ([17]; Table A1): 16 mm
Diameter [18]: 15 mm
diameter in mm [18]: 15 mm
MIC mg/L ([5]; SaR1, Table D2): ≦0.5 mg/L
MIC [5, 26]: ≤ 0.5 mg/L
Diameter ([19]; PaR5, Table I1): 13 mm
diameter in mm [19]: 13 mm
Diameter [6]: 31 mm
diameter in mm [6]: 31 mm
MIC ([7]; SaR4, Table F1, read-out: MIC): ≤ 1 mg/L
MIC [7, 27]: ≤ 1 mg/L
Diameter [20]: 25 mm
diameter in mm [20]: 25 mm
Diameter [8]: 30 mm

CN[C@H](CC(C)C)C(=O)N[C@H]1C(=O)N[C@@H](CC(N)=O)C(=O)N[C@H]2C(=O)N[C@H]3C(=O)N[C@H](C(=O)N[C@H](C(=O)O)c4cc(O)cc(O)c4-c4cc3ccc4O)[C@H](O)c3ccc(c(Cl)c3)Oc3cc2cc(c3O[C@@H]2O[C@H](CO)[C@@H](O)[C@H](O)[C@H]2O[C@H]2C[C@](C)(N)[C@H](O)[C@H](C)O2)Oc2ccc(cc2Cl)[C@H]1O [Vancomycin]
MIC ([1]; ATCC29213, read-out: Initial MICs (mg/L)): 0.5 mg/L
MIC [2]: 0.25 µg/mL
MIC [3]: 0.25 µg/mL
MIC [4]: 0.25 µg/mL
CA-SFM Interpretation ([5]; SaR1): Susceptible
CLSI Interpretation ([5]; SaR1): Susceptible
EUCAST Interpretation ([5]; SaR1): Susceptible
Results ([5]; SaR1, Table D1): Susceptible
MIC mg/L ([5]; SaR1, Table D2): ≦1 mg/L
MIC ([5]; Staphylococcus aureus, read-out: MIC mg/L): ≤ 1 mg/L
CA-SFM Interpretation [6]: Susceptible
Results [6]: Susceptible
diameter in mm [6]: 28 mm
Results ([7]; SaR4, Table F1, MIC): Susceptible
CA-SFM Interpretation ([7]; SaR4): Susceptible
CLSI Interpretation ([7]; SaR4): Susceptible
EUCAST Interpretation ([7]; SaR4): Susceptible
MIC [7]: 1 mg/L (≈ 0.69 µM)
MIC ([7]; read-out: MIC mg/L): 1 mg/L (≈ 0.69 µM)
Results [8]: Susceptible

Colimycin
MIC [11]: 4 µg/mL
MIC [12]: 8 µg/mL
MIC [14]: 16 µg/mL
MIC [16]: 8 µg/mL
MIC mg/L (diameter in mm) [17]: 15 mm
CA-SFM Interpretation ([17]; EcR1, diameter against CA-SFM 2011 limits): Susceptible
EUCAST Interpretation ([17]; EcR1, diameter against EUCAST 2011 limits): Resistant
Diameter ([17]; Table A1): 15 mm
Results ([17]; EcR1, interpretation of the diameter against Dmin Dmax, Table A1): Susceptible
CA-SFM Interpretation ([18]; Cd CA-SFM 2011): Susceptible
Diameter [18]: 16 mm
Results ([18]; Table C1, against Dmin Dmax): Susceptible
diameter in mm [18]: 16 mm
CA-SFM Interpretation ([21]; Cc CA-SFM 2011): Susceptible
CLSI Interpretation ([21]; Cc CLSI 2011): Susceptible
EUCAST Interpretation ([21]; Cc EUCAST 2011): Susceptible
MIC ([21]; Table H1): ≦0.5
Results ([21]; Table H1): Susceptible
MIC mg/L ([21]; Table H2): ≦0.5 mg/L
Diameter ([19]; PaR5, Table I1): 23 mm
Results ([19]; PaR5, Table I1, against Dmin-Dmax): Susceptible
diameter in mm [19]: 23 mm
CA-SFM Interpretation ([19]; disk diffusion, PaR5, versus critical diameter CA-SFM 2011): Susceptible
CLSI Interpretation ([19]; disk diffusion, PaR5, versus critical diameter CLSI 2011): Susceptible
CA-SFM Interpretation ([20]; Cd CA-SFM 2011): Susceptible
CLSI Interpretation ([20]; Cd CLSI 2011): Susceptible
Diameter [20]: 20 mm
Results ([20]; Table G1, against Dmin-Dmax): Susceptible
diameter in mm [20]: 20 mm
